Measurements published in US8980226B2, “Aerosolized fosfomycin/aminoglycoside combination for the treatment of bacterial respiratory infections” (Gilead Sciences, Inc., priority 2004, dated 2015).
Read-outs that look alike come from different tables or passages of the source.

How the values were obtained:
Type in all cases: cell-based
B. cepacia = assay: MIC, agar-plate dilution method
Description: (§1) “Minimal inhibitory concentration (MIC)” means the lowest concentration of antibiotic (s) that prevents visible growth after incubation for 18-20 hours at 35° C.
(§2) The efficacy of antibiotics and antibiotic combinations against Gram-positive and Gram-negative bacteria representative of species that cause respiratory infections in patients with cystic fibrosis, bronchiectasis, sinusitis, and ventilator-associated pneumonia were evaluated in MIC assays. P. aeruginosa strains were isolated from lung sputum samples collected from cystic fibrosis patients, blood cultures, respiratory tract infections, and skin or soft tissue infections. E. coli, H. influenzae, B. cepacia, S. maltophilia, K. pneumoniae, M. catarrhalis, S. aureus, S. pneumoniae, S. pyogenes, and E. faecalis were isolated from respiratory tract infections. E. coli ATCC 25922, P. aeruginosa ATCC 27853, and S. aureus ATCC 29213 were used as quality control stains.
(§3) The MICs of fosfomycin alone, tobramycin alone, or combinations of fosfomycin plus tobramycin were determined by the agar-plate dilution method according to NCCLS guidelines (NCCLS, 2003). Bacterial strains were streaked onto Trypic Soy Agar plates (PML Microbiologicals, Wilsonville, Oreg.) containing 5% defibrinated sheep blood (hereafter referred to as blood agar plates) and incubated overnight at 35° C. Two to three bacterial colonies from the overnight cultures were inoculated into 3 mL of sterile normal saline, vortexed briefly, and adjusted to a 0.5 McFarland standard (NCCLS, 2003). The bacterial suspension was diluted 1:40 in sterile normal saline and served as the inoculum. Mueller-Hinton agar plates (hereafter referred to as MHA) were prepared by combining 16 g of agarose (Becton-Dickinson, Sparks, Md.), 22 g of Mueller-Hinton broth powder (Becton-Dickinson, Sparks, Md.), and adjusted to 1 L with distilled water. The agar was sterilized by autoclaving, cooled to 55° C., and supplemented with 25 μg/mL of glucose-6-phosphate (Sigma-Aldrich, St. Louis, Mo.). Twenty-five mL of cooled agar was aliquoted into 50 mL conical tubes and supplemented with appropriate concentrations of antibiotic to achieve concentrations ranging from 0.06 μg/mL to 512 μg/mL. After gently mixing the agar and antibiotic, the suspension was poured into sterile 100 mm petri dishes and allowed to solidify at room temperature. The antibiotic agar plates were inoculated with approximately 2×10^4 CFU/spot with a 48-point inoculator (Sigma-Aldrich, St. Louis, Mo.). The MIC was defined as the lowest concentration of antibiotic (s) that prevented visible growth after incubation for 18-20 hours at 35° C. The efficacy of a particular antibiotic or antibiotic combination on large populations of P. aeruginosa was determined by calculating the MIC50 and MIC90 values. The MIC50 value was defined as the concentration of antibiotic(s) which inhibited 50% of the P. aeruginosa strains. The MIC90 value was defined as the concentration of antibiotic(s) which inhibited 90% of the P. aeruginosa strains (Wiedemann and Grimm, 1996).

E. coli = assay: MIC, agar-plate dilution method; details: Escherichia coli
Description: as §1, §2, §3

E. faecalis = assay: MIC, agar-plate dilution method; details: Enterococcus faecalis
Description: as §1, §2, §3

H. influenzae = assay: MIC, agar-plate dilution method
Description: as §1, §2, §3

K. pneumoniae = assay: MIC, agar-plate dilution method
Description: as §1, §2, §3

M. catarrhalis = assay: MIC, agar-plate dilution method
Description: as §1, §2, §3

P. aeruginosa [1] = assay: MIC, agar-plate dilution method; details: Pseudomonas aeruginosa
Description: as §1, §2, §3

S. aureus = assay: MIC, agar-plate dilution method
Description: as §1, §2, §3

S. maltophilia = assay: MIC, agar-plate dilution method; details: Stenotrophomonas maltophilia
Description: as §1, §2, §3

S. pneumoniae = assay: MIC, agar-plate dilution method; details: Streptococcus pneumoniae
Description: as §1, §2, §3

S. pyogenes = assay: MIC, agar-plate dilution method; details: Streptococcus pyogenes
Description: as §1, §2, §3

P. aeruginosa [2] = details: for Frequency of Resistance: plates with 128 μg/mL fosfomycin, 8 μg/mL tobramycin, or both
Description: The frequency of single-step spontaneous resistance mutation was determined for 5 susceptible P. aeruginosa strains. The bacterial inoculum was prepared by inoculating 5 mL of CAMHB with 2-3 bacterial colonies and incubating at 35° C. in a shaking water bath (250 rpm) for 18 h. A 1:20 dilution of the overnight culture was made into 50 mL of fresh CAMHB in a 125 ml erlenmyer flask and incubated at 35° C. in a shaking waterbath (250 rpm) for 8 hours. Cultures were centrifuged at 2,500 rpm, room temperature, for 20 min. The supernatant was decanted off and the cell pellet from the 50 mL of culture resuspended in 500 μl-1000 μl CAMHB. The CFU/mL in the bacterial suspension was determined by making 10-fold serial dilutions in sterile normal saline, and spreading 100 μl aliquots on blood agar plates. Culture plates were incubated at 35° C. for 18-24 hours and the number of colonies enumerated manually. One hundred microliters of bacterial cell suspension (approximately 10^9 CFU) was spread onto MHA plates containing 128 μg/mL of fosfomycin, 8 μg/mL of tobramycin, or 128 μg/mL of fosfomycin plus 8 μg/mL of tobramycin. The culture plates were incubated at 35° C. for 48-72 hours and the number of colonies on each plate was enumerated manually. The frequency of resistance was calculated by dividing the number of bacteria growing at the defined antibiotic concentration by the number of bacteria in the original inoculum. Representative mutants were evaluated for changes in MIC to fosfomycin alone, tobramycin alone, and fosfomycin plus tobramycin combinations as described in Example 5, Method A.

[3] = Haemophilus influenzae, H. influenzae COR-042, read-out: MIC
[4] = Klebsiella pneumoniae, K. pneumoniae COR-042, read-out: MIC
[5] = Moraxella catarrhalis, M. catarrhalis COR-109, read-out: MIC
[6] = P. aeruginosa COR-003, read-out: MIC
[7] = P. aeruginosa COR-021, read-out: MIC
[8] = Staphylococcus aureus, S. aureus COR-051 (MSSA), read-out: MIC
[9] = Staphylococcus aureus, S. aureus COR-055 (MRSA), read-out: MIC
[10] = S. maltophilia COR-083, read-out: MIC
[11] = mutants of P. aeruginosa ATCC 27853
[12] = mutants of P. aeruginosa COR-002
[13] = mutants of P. aeruginosa COR-003
[14] = mutants of P. aeruginosa COR-013
[15] = mutants of P. aeruginosa COR-014

Structure (SMILES)	MIC (E. coli; E. coli COR-032)	MIC (E. coli; E. coli COR-039)	MIC (E. coli; E. coli COR-040)	MIC (E. faecalis; E. faecalis COR-099)	MIC (E. faecalis; E. faecalis COR-103)	MIC (H. influenzae; [3])	MIC (K. pneumoniae; [4])	MIC (M. catarrhalis; M. catarrhalis COR-113)	MIC (M. catarrhalis; [5])	MIC (P. aeruginosa [1]; [6])	MIC (P. aeruginosa [1]; [7])	MIC (S. aureus; [8])	MIC (S. aureus; [9])	MIC (S. maltophilia)	MIC (S. maltophilia; [10])	MIC (S. pneumoniae; S. pneumoniae COR-061)	MIC (S. pneumoniae; S. pneumoniae COR-068)	MIC (S. pyogenes; S. pyogenes COR-104)	MIC (S. pyogenes; S. pyogenes COR-105)	Frequency of Resistance (P. aeruginosa [2]; P. aeruginosa ATCC 27853)	other results
C[C@@H]1O[C@@H]1P(=O)(O)O [Fosfomycin]	1 µg/mL	64 µg/mL	1 µg/mL	32 µg/mL	32 µg/mL	8 µg/mL	8 µg/mL	4 µg/mL	4 µg/mL	16 µg/mL	8 µg/mL	1 µg/mL	4 µg/mL	128 µg/mL	64 µg/mL	32 µg/mL	8 µg/mL	64 µg/mL	16 µg/mL	4.1 × 10^−5	MIC (B. cepacia; B. cepacia COR-098): ≧2048 μg/mL; MIC (B. cepacia; Burkholderia cepacia, B. cepacia COR-090, read-out: MIC): ≥ 2050 µg/mL; MIC (H. influenzae; Haemophilus influenzae, H. influenzae COR-049): 128 µg/mL; MIC (K. pneumoniae; Klebsiella pneumoniae, K. pneumoniae COR-049): 128 µg/mL; MIC (P. aeruginosa [1]; P. aeruginosa COR-009): 1020 µg/mL; MIC (P. aeruginosa [1]; P. aeruginosa COR-027): 128 µg/mL; MIC (S. aureus; S. aureus COR-060 (GISA)): 2 µg/mL; MIC (S. aureus; Staphylococcus aureus, S. aureus COR-059, read-out: MIC): 2 µg/mL; MIC (S. maltophilia; S. maltophilia COR-087, read-out: MIC): ≥ 512 µg/mL; Frequency of Resistance (P. aeruginosa [2]; P. aeruginosa COR-002): 1.4 × 10^−3; Frequency of Resistance (P. aeruginosa [2]; P. aeruginosa COR-003): 5.5 × 10^−4; Frequency of Resistance (P. aeruginosa [2]; P. aeruginosa COR-013): 6.4 × 10^−3; Frequency of Resistance (P. aeruginosa [2]; P. aeruginosa COR-014): 1.5 × 10^−5; Fold Increase in MIC after a single exposure to antibiotic (P. aeruginosa [2]; [11]): 128; Fold Increase in MIC after a single exposure to antibiotic (P. aeruginosa [2]; [12]): >256; Fold Increase in MIC after a single exposure to antibiotic (P. aeruginosa [2]; [13]): >256; Fold Increase in MIC after a single exposure to antibiotic (P. aeruginosa [2]; [14]): >64; Fold Increase in MIC after a single exposure to antibiotic (P. aeruginosa [2]; [15]): >512
NC[C@H]1O[C@H](O[C@H]2[C@H](O)[C@@H](O[C@H]3O[C@H](CO)[C@@H](O)[C@H](N)[C@H]3O)[C@H](N)C[C@@H]2N)[C@H](N)C[C@@H]1O [Tobramycin]	0.5 µg/mL	0.25 µg/mL	32 µg/mL	512 µg/mL	8 µg/mL	0.5 µg/mL	0.5 µg/mL	8 µg/mL	8 µg/mL	0.5 µg/mL	64 µg/mL	0.25 µg/mL	0.25 µg/mL	128 µg/mL	512 µg/mL	64 µg/mL	16 µg/mL	32 µg/mL	64 µg/mL	3.4 × 10^−6	MIC (B. cepacia; Burkholderia cepacia, B. cepacia COR-090): 128 µg/mL; MIC (B. cepacia; Burkholderia cepacia, B. cepacia COR-098, read-out: MIC): 64 µg/mL; MIC (H. influenzae; H. influenzae COR-049): 0.5 µg/mL; MIC (K. pneumoniae; K. pneumoniae COR-049): 0.5 µg/mL; MIC (P. aeruginosa [1]; P. aeruginosa COR-009, read-out: MIC): 2050 µg/mL; MIC (P. aeruginosa [1]; P. aeruginosa COR-027, read-out: MIC): 0.5 µg/mL; MIC (S. aureus; Staphylococcus aureus, S. aureus COR-059): 128 µg/mL; MIC (S. aureus; Staphylococcus aureus, S. aureus COR-060 (GISA), read-out: MIC): 64 µg/mL; MIC (S. maltophilia; S. maltophilia COR-082, read-out: MIC): 4 µg/mL; Frequency of Resistance (P. aeruginosa [2]; P. aeruginosa COR-002): 6.7 × 10^−6; Frequency of Resistance (P. aeruginosa [2]; P. aeruginosa COR-003): 3.2 × 10^−6; Frequency of Resistance (P. aeruginosa [2]; P. aeruginosa COR-013): 2.6 × 10^−6; Frequency of Resistance (P. aeruginosa [2]; P. aeruginosa COR-014): 5.0 × 10^−6; Fold Increase in MIC after a single exposure to antibiotic (P. aeruginosa [2]; [11]): 1; Fold Increase in MIC after a single exposure to antibiotic (P. aeruginosa [2]; [12]): 1; Fold Increase in MIC after a single exposure to antibiotic (P. aeruginosa [2]; [13]): 2; Fold Increase in MIC after a single exposure to antibiotic (P. aeruginosa [2]; [14]): 8; Fold Increase in MIC after a single exposure to antibiotic (P. aeruginosa [2]; [15]): 16; increase in MIC of mutants after a single exposure (P. aeruginosa [2]; range over the P. aeruginosa mutants): 2-16 fold
